Reference: publication PMC6502800, “Visualizing the cellular route of entry of a cystine-knot peptide with Xfect transfection reagent by electron microscopy” (Scientific Reports, 2019)

How the values were obtained:
[1] = system: HeLa cells; assay: Uptake of cargo into cells pre-treated with Xfect
Protocol: Cells were fixed with 4% PFA and processed as described in methods. […] Values were normalized to the 6 h Xfect treated samples. Mean ± SD. n = 1000 cells. Representative images from three independent experiments are shown. Scale bar, 20 µm.
(a–d) HeLa cells were incubated with Xfect for indicated times then washed with PBS for three times and incubated with 30 nM SYTOX Red (a,b, Cy5 channel) or 200 nM YOYO-3 Iodide (c,d, Texas Red channel) for 20 min, and washed with PBS again. Cells were fixed with 4% PFA and processed as described in methods. […] Values were normalized to the 24 h Xfect treated samples. Mean ± SD. n = 1000 cells. Representative images from three independent experiments are shown. Scale bar, 20 µm.
cells.HeLa cells were incubated with Xfect for the indicated times, then washed with PBS
forthree times and incubated with 30 nM SYTOX Red (a, Cy5 channel) or 200 nM YOYO-3
Iodide (b, Texas Red channel) for 20 min, and washed with PBS again. Cells were fixed with
4% PFA and processed as described in methods. Representative images from three
independent experiments are shown. Scale bar, 20 µm. Images are normalized to saturation
atthe 24 h time point in order to show the cellular distribution of early time point samples.

[2] = system: HeLa cells; assay: Detergent-based cell permeabilization assay
Protocol: Figure 4 Internalized rEETI-II/Xfect is found in compartments that are resistant to detergent permeabilization. […] Cells were then incubated with PBS, 0.1% Triton X-100, 0.04% Saponin, 0.01% Saponin, or 25 μM Digitonin in PBS for 5 min at room temperature, washed and imaged. […] Mean ± SD. n = 1000 cells. Representative images from at least three independent experiments are shown. Scale bar, 20 μm.
For cell permeabilization experiments, HeLa cells were incubated with 5 μM rEETI-II-A488 with or without Xfect for 60 min, or transferrin (labeled with Alexa 555, 0.2 mg/ml) for 10 min, at 37 °C/5% CO2, washed three times with cold PBS. Cells were then fixed with 4% PFA for 20 min at room temperature, washed three times with PBS, and incubated with either PBS, or detergent containing PBS for 5 min at room temperature. Cells were washed again. […] Fluorescence images were captured on a high throughput ImageXpress Micro XL imaging system (Molecular Devices) and images were analyzed by MetaXpress 4.0. Fluorescence intensity values above a threshold defined using the DMSO-treated samples were measured and used to quantify integrated fluorescence intensity per cell or percentage of dye-positive cells. […] Cells were incubated with Hoechst 333421 (5 µg/ml in PBS) for 10 min and washed three times with PBS then imaged, analyzed as described above. […]

Molecule | uptake of cell impermeable dye into cells pre-treated with Xfect ([1]; HeLa cells pre-treated with Xfect 3 h, washed, then dye 20 min (SYTOX Red 30 nM; YOYO-3 Iodide 200 nM), fluorescence imaging) | uptake of dye into cells in the absence of Xfect preincubation ([1]; HeLa cells, no Xfect, dye 20 min (SYTOX Red 30 nM; YOYO-3 Iodide 200 nM), negative control) | internalized transferrin staining after detergent permeabilization [2]
C[n+]1c(C=CC=C2C=CN(CCC[N+](C)(C)CCC[N+](C)(C)CCCN3C=CC(=CC=Cc4oc5ccccc5[n+]4C)c4ccccc43)c3ccccc32)oc2ccccc21 [YOYO-3 Iodide] | observed to enter into cells | little to no uptake | –
transferrin-Alexa555: transferrin labeled with Alexa 555, marker of early and recycling endosomes | – | – | resistant to detergent extraction
